# According to patent US11524966B1 (Valo Early Discovery, Inc., priority 2017, dated 2022):
# Target: T1, USP25 (USP25-His6, Boston Biochem E-546) (Homo sapiens, UniProt Q9UHP3)
# T1 construct: His6; purchased Boston Biochem E-546
# T1 sequence (Q9UHP3 1-1055): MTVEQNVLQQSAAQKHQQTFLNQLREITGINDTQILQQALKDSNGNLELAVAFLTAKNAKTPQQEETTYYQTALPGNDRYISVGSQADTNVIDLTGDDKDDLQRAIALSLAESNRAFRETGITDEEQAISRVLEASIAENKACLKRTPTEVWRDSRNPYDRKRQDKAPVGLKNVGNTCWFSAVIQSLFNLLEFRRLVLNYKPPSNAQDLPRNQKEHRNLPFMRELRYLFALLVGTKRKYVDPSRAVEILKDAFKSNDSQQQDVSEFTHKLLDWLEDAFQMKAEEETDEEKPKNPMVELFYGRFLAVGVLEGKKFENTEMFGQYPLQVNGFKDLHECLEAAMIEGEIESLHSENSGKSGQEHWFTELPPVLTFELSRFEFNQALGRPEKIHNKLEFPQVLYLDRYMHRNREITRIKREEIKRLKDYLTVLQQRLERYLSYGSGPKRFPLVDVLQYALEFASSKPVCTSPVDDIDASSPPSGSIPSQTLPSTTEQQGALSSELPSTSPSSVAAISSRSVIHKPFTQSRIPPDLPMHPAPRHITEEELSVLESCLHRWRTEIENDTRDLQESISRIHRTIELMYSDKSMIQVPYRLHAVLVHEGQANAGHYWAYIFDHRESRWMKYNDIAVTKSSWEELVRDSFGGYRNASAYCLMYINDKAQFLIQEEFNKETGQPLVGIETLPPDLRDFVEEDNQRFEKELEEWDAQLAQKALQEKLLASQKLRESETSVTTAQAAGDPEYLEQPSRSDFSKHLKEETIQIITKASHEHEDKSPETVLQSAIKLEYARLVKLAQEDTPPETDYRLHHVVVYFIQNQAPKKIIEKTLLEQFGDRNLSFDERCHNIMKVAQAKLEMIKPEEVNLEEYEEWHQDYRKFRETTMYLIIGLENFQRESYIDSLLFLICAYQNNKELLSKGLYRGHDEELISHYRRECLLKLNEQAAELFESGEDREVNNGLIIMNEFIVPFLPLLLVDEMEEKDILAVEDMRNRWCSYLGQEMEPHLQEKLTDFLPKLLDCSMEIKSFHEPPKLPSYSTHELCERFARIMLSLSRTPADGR
# Test: Ubiquitin-Rhodamine 110 Assay for USP25 Activity, Example A-2
# Format: biochemical
# Conditions: Ubiquitin-Rhodamine 110 assay, Example A-2; read-out: USP25 A-2 IC50 range
# In short: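 Read-out: Rh110 fluorescence (ex 485, em 535 nm) after 45 min RT turnover of 25 nM Ub-Rh110 by 75 pM USP25-His6, quenched with 10 mM citric acid. Compounds at 25 μM–1.3 nM, preincubated 30 min with enzyme. IC50 from 4-parameter logistic fit.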
row,Structure (SMILES),IC50
1,"O=C(N[C@@H]1COc2cc(N3CCNCC3)ccc2C1)c1cnc2c(ccn2C(F)F)c1 [Example 39, (S)-1-(difluoromethyl)-N-(7-(piperazin-1-yl)chroman-3-yl)-1H-pyrrolo[2,3-b]pyridine-5-carboxamide]",> 2000 nM
2,"Cc1ccc2c(N)c(C(=O)N[C@H]3COc4cc(N5C[C@H]6CNC[C@@H]6C5)ccc4C3)sc2n1 [Example 43, 3-amino-N-((R)-7-((3aR,6aR)-hexahydropyrrolo[3,4-c]pyrrol-2(1H)-yl)chroman-3-yl)-6-methylthieno[2,3-b]pyridine-2-carboxamide]",> 2000 nM
3,"Cc1ccc2c(N)c(C(=O)N[C@@H]3COc4cc(N5C[C@H]6CNC[C@@H]6C5)ccc4C3)sc2n1 [Example 44, 3-amino-N-((S)-7-((3aR,6aR)-hexahydropyrrolo[3,4-c]pyrrol-2(1H)-yl)chroman-3-yl)-6-methylthieno[2,3-b]pyridine-2-carboxamide]",> 2000 nM
4,Nc1c(C(=O)N[C@H]2COc3cc(N4CCNCC4)ccc3C2)sc2nc(C3CC3)sc12 [Example 45],200 to 2000 nM
5,"Cc1nc2sc(C(=O)N[C@@H]3COc4cc(N5CC6CCC(C5)N6)c(F)cc4C3)c(N)c2s1 [Example 46, N-((3S)-7-(3 8-diazabicyclo[3.2.1]octan-3-yl)-6-fluorochroman-3-yl)-6-amino-2-methylthieno[2,3-d]thiazole-5-carboxamide]",200 to 2000 nM
6,"Cc1nc2sc(C(=O)N[C@H]3COc4cc(N5CC6CCC(C5)N6)c(F)cc4C3)c(N)c2s1 [Example 47, N-((3R)-7-(3,8-diazabicyclo[3.2.1]octan-3-yl)-6-fluorochroman-3-yl)-6-amino-2-methylthieno[2,3-d]thiazole-5-carboxamide]",> 2000 nM
7,"Cc1ccc2c(N)c(C(=O)N[C@H]3COc4cc(N5CCNCC5)cc(Cl)c4C3)sc2n1 [Example 48, (R)-3-amino-N-(5-chloro-7-(piperazin-1-yl)chroman-3-yl)-6-methylthieno[2,3-b]pyridine-2-carboxamide]",50 to 200 nM
8,"Cc1ccc2c(N)c(C(=O)N[C@@H]3COc4cc(N5CCNCC5)cc(Cl)c4C3)sc2n1 [Example 49, (S)-3-amino-N-(5-chloro-7-(piperazin-1-yl)chroman-3-yl)-6-methylthieno[2,3-b]pyridine-2-carboxamide]",> 2000 nM
9,"O=C(N[C@H]1COc2cc(N3CC4CCC(C3)N4)ccc2C1)c1cnc2c(c1)CCCN2 [Example 50, N-((3R)-7-(3,8-diazabicyclo[3.2.1]octan-3-yl)chroman-3-yl)-5,6,7,8-tetrahydro-1,8-naphthyridine-3-carboxamide]",200 to 2000 nM
10,"O=C(N[C@H]1COc2cc(N3CC4CCC(C3)N4)ccc2C1)c1cnc2c(c1)CCCO2 [Example 51, N-((3R)-7-(3,8-diazabicyclo[3.2.1]octan-3-yl)chroman-3-yl)-3,4-dihydro-2H-pyrano[2,3-b]pyridine-6-carboxamide]",> 2000 nM
11,"O=C(N[C@H]1COc2cc(N3CCNCC3)ccc2C1)c1ccc(NCc2ccccc2)nc1 [Example 52, (R)-6-(benzylamino)-N-(7-(piperazin-1-yl)chroman-3-yl)nicotinamide]",200 to 2000 nM
12,"C[C@H](Nc1ccc(C(=O)N[C@H]2COc3cc(N4CCNCC4)ccc3C2)cn1)c1ccccc1 [Example 53, 6-(((S)-1-phenylethyl)amino)-N-((R)-7-(piperazin-1-yl)chroman-3-yl)nicotinamide]",> 2000 nM
13,"C[C@@H](Nc1ccc(C(=O)N[C@H]2COc3cc(N4CCNCC4)ccc3C2)cn1)c1ccccc1 [Example 54, 6-(((R)-1-phenylethyl)amino)-N-((R)-7-(piperazin-1-yl)chroman-3-yl)nicotinamide]",> 2000 nM
14,"Cc1ccc2c(N)c(C(=O)N[C@H]3COc4c(F)c(N5CCNCC5)cc(F)c4C3)sc2n1 [Example 55, (R)-3-amino-N-(5,8-difluoro-7-(piperazin-1-yl)chroman-3-yl)-6-methylthieno[2,3-b]pyridine-2-carboxamide]",50 to 200 nM
15,"Cc1nc2sc(C(=O)N[C@H]3COc4c(F)c(N5CCNCC5)cc(F)c4C3)c(N)c2s1 [Example 56, (R)-6-amino-N-(5,8-difluoro-7-(piperazin-1-yl)chroman-3-yl)-2-methylthieno[2,3-d]thiazole-5-carboxamide]",200 to 2000 nM
16,"O=C(N[C@H]1COc2cc(N3CCNCC3)ccc2C1)c1cnc2c(c1)CC[C@H]2O [Example 57, (R)-7-hydroxy-N-((R)-7-(piperazin-1-yl)chroman-3-yl)-6,7-dihydro-5H-cyclopenta[b]pyridine-3-carboxamide]",> 2000 nM
17,"O=C(N[C@H]1COc2cc(N3CCNCC3)ccc2C1)c1cnc2c(c1)CC[C@@H]2O [Example 58, (S)-7-hydroxy-N-((R )-7-(piperazin-1-yl)chroman-3-yl)-6,7-dihydro-5H-cyclopenta[b]pyridine-3-carboxamide]",> 2000 nM
18,"O=C(N[C@H]1COc2cc(N3CCNCC3)ccc2C1)c1cnc2c(ccn2Cc2ccccc2)c1 [Example 59, (R)-1-benzyl-N-(7-(piperazin-1-yl)chroman-3-yl)-1H-pyrrolo[2,3-b]pyridine-5-carboxamide]",1 to 50 nM
19,"Cc1cnc2c(N)c(C(=O)N[C@H]3COc4c(C#N)c(N5CCNCC5)cc(F)c4C3)sc2n1 [Example 60, (R)-7-amino-N-(8-cyano-5-fluoro-7-(piperazin-1-yl)chroman-3-yl)-3-methylthieno[2,3-b]pyrazine-6-carboxamide]",200 to 2000 nM
20,"Cc1ccc2c(N)c(C(=O)N[C@H]3COc4cc(N5CCNCC5)c(F)c(F)c4C3)sc2n1 [Example 61, (R)-3-amino-N-(5,6-difluoro-7-(piperazin-1-yl)chroman-3-yl)-6-methylthieno[2,3-b]pyridine-2-carboxamide]",50 to 200 nM
21,"Cc1ccc2c(N)c(C(=O)N[C@H]3COc4cc([C@H]5CCNC[C@H]5O)ccc4C3)sc2n1 [Example 62, 3-amino-N-((R)-7-((3S,4R)-3-hydroxypiperidin-4-yl)chroman-3-yl)-6-methylthieno[2,3-b]pyridine-2-carboxamide]",1 to 50 nM
22,"Cc1ccc2c(N)c(C(=O)N[C@H]3COc4cc([C@@H]5CCNC[C@@H]5O)ccc4C3)sc2n1 [Example 63, 3-amino-N-((R)-7-((3R,4S)-3-hydroxypiperidin-4-yl)chroman-3-yl)-6-methylthieno[2,3-b]pyridine-2-carboxamide]",50 to 200 nM
23,"Cc1ccc2c(N)c(C(=O)N[C@H]3COc4cc([C@H]5CCNC[C@@H]5O)ccc4C3)sc2n1 [Example 64, 3-amino-N-((R)-7-((3R,4R)-3-hydroxypiperidin-4-yl)chroman-3-yl)-6-methylthieno[2,3-b]pyridine-2-carboxamide]",50 to 200 nM
24,"Cc1ccc2c(N)c(C(=O)N[C@H]3COc4cc([C@@H]5CCNC[C@H]5O)ccc4C3)sc2n1 [Example 65, 3-amino-N-((R)-7-((3S,4S)-3-hydroxypiperidin-4-yl)chroman-3-yl)-6-methylthieno[2,3-b]pyridine-2-carboxamide]",50 to 200 nM
25,"Cc1nc2sc(C(=O)N[C@H]3COc4cc(N5CCNCC5)c(F)c(F)c4C3)c(N)c2s1 [Example 66, (R)-6-amino-N-(5,6-difluoro-7-(piperazin-1-yl)chroman-3-yl)-2-methylthieno[2,3-d]thiazole-5-carboxamide]",200 to 2000 nM
26,"Cc1cnc2c(N)c(C(=O)N[C@H]3COc4cc(N5CCNCC5)c(C#N)c(F)c4C3)sc2n1 [Example 67, (R)-7-amino-N-(6-cyano-5-fluoro-7-(piperazin-1-yl)chroman-3-yl)-3-methylthieno[2,3-b]pyrazine-6-carboxamide]",50 to 200 nM
